Measurements reported in US20020072602A1, “Micronized mirtazapine” (priority 2000, published 2002).
Entries after “also recorded” stand apart in the source; their conditions may differ.

How the values were obtained:
[1] = cited from earlier work
[2] = dissolution of mirtazapine before and after micronization; type: physicochemical; details: compared to mirtazapine prior to micronization
Text: FIG. 1 is a graph of the dissolution data of mirtazapine before and after micronization. FIG. 2 is a graph of the percent of dissolved mirtazapine before and after micronization. FIG. 3 is a graph of showing the dissolution time and standard deviations of the dissolution results before and after micronization. […] This is valuable improvement provides for more accurate dosing of mirtazapine.

| Compound | solubility in water [1] | dissolution profile [2] |
| --- | --- | --- |
| CN1CCN2c3ncccc3Cc3ccccc3C2C1 (centres unmarked) [Mirtazapine, 1,2,3,4,10,14b-hexahydro-2-methyl-pyrazino [2,1-a]pyrido[2,3-c][2] benzazepine] | essentially insoluble in water |  |
| CN1CCN2c3ncccc3Cc3ccccc3C2C1 (centres unmarked) [micronized mirtazapine] |  | superior dissolution profile; also recorded: more stable and reproducible dissolution profile |
